Experimental data published in the supplement of paper PMC10307832.

Columns and labels:
Assay in all cases: relative viability (nuclei count vs DMSO), 5 days (fraction); higher = more cells survive
Dabrafenib = compound: CC(C)(C)c1nc(-c2cccc(NS(=O)(=O)c3c(F)cccc3F)c2F)c(-c2ccnc(N)n2)s1 [Dabrafenib]
Method in brief: (§1)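 Five library-drug doses spaced by √10 were pinned onto vehicle-anchored 1536-well plates of lung cancer cell lines that had been kept overnight at 37 °C. Cells went 5 days without medium change, then were fixed, permeabilised and Hoechst-stained together, imaged at 4× and counted by MetaXpress. Viability is the ratio of treated-well to vehicle-well nuclei, taken as a median over plates. Plates required control CV below 25% and at least one doubling.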

VX-702 = compound: NC(=O)c1ccc(N(C(N)=O)c2c(F)cccc2F)nc1-c1ccc(F)cc1F [VX-702]
Method in brief: as §1

VX-702 + Pemetrexed = compound: NC(=O)c1ccc(N(C(N)=O)c2c(F)cccc2F)nc1-c1ccc(F)cc1F [VX-702] + Nc1nc2[nH]cc(CCc3ccc(C(=O)N[C@@H](CCC(=O)O)C(=O)O)cc3)c2c(=O)[nH]1 [Pemetrexed] (partner 0.2 µM)
Method in brief: (§2)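 Each reported value is a median over duplicate plates. It expresses relative viability: treated-well nuclei count divided by vehicle-well nuclei count. Lung cancer cell lines in 1536-well plates were dosed by pin tool a day after seeding, alone with one drug or with a fixed anchor-drug dose plus five library-drug doses (not always all listed) in √10 steps, and nuclei were counted after 5 days.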

Dabrafenib + Alpelisib = compound: CC(C)(C)c1nc(-c2cccc(NS(=O)(=O)c3c(F)cccc3F)c2F)c(-c2ccnc(N)n2)s1 [Dabrafenib] + Cc1nc(NC(=O)N2CCC[C@H]2C(N)=O)sc1-c1ccnc(C(C)(C)C(F)(F)F)c1 [Alpelisib] (partner 2 µM)
Method in brief: as §2

Cell Line	relative viability (Dabrafenib; 0.003 µM)	relative viability (Dabrafenib; 0.009487 µM)	relative viability (Dabrafenib; 0.03 µM)	relative viability (Dabrafenib; 0.09487 µM)	relative viability (Dabrafenib; 0.3 µM)	relative viability (VX-702; 0.02 µM)	relative viability (VX-702; 0.2 µM)	relative viability (VX-702; 0.6325 µM)	relative viability (VX-702; 2 µM)	relative viability (VX-702 + Pemetrexed; first compound 0.02 µM)	relative viability (VX-702 + Pemetrexed; first compound 0.2 µM)	relative viability (VX-702 + Pemetrexed; first compound 0.6325 µM)	relative viability (VX-702 + Pemetrexed; first compound 2 µM)	relative viability (Dabrafenib + Alpelisib; first compound 0.003 µM)	relative viability (Dabrafenib + Alpelisib; first compound 0.009487 µM)	relative viability (Dabrafenib + Alpelisib; first compound 0.03 µM)	relative viability (Dabrafenib + Alpelisib; first compound 0.09487 µM)	relative viability (Dabrafenib + Alpelisib; first compound 0.3 µM)
LXF-289	0.923	1	1.16	0.944	1.14	1.01	1.01	1.08	1.02	0.935	0.894	0.9	0.947	1.02	1.03	1.02	0.991	1.06
NCI-H23	–	0.913	0.85	0.642	0.919	1.07	0.87	1.1	1.16	0.655	0.654	0.714	0.774	–	0.787	0.554	0.652	0.791
NCI-H322M	–	1.14	–	0.943	0.9	0.979	0.888	1.01	1.02	0.61	0.611	0.633	0.578	–	0.829	–	0.629	0.85
NCI-H358	–	1.14	0.932	1.03	1.17	0.965	0.857	0.916	1.1	0.176	0.172	0.168	0.173	–	1.01	0.735	1.01	1.15
NCI-H441	–	0.96	1.01	0.51	0.766	1.14	0.952	0.934	0.992	0.24	0.233	0.273	0.238	–	0.915	0.817	0.677	0.692
NCI-H460	0.965	0.954	0.919	0.968	0.985	1.02	0.95	1.06	0.989	0.0627	0.0509	0.055	0.057	0.508	0.599	0.394	0.567	0.592
NCI-H520	0.974	0.941	0.795	0.884	0.921	0.969	0.925	1.03	1.07	0.713	0.486	0.636	0.765	0.934	0.881	0.708	0.881	0.914
NCI-H596	–	1.13	0.768	1.03	1.1	1.04	0.829	1.02	1.07	0.535	0.455	0.567	0.534	0.408	0.578	0.427	0.534	0.566
NCI-H647	–	0.967	0.71	0.871	1.01	0.855	0.874	0.996	1.14	0.174	0.172	0.133	0.144	–	1.09	1.12	0.945	1.03
NCI-H650	–	1.17	0.708	0.575	0.564	1.04	–	1.07	1.24	1.22	0.932	0.92	0.958	–	1.09	0.953	0.906	0.706
NCI-H661	0.988	0.967	0.94	0.986	0.958	1.02	0.98	1.04	1.1	0.766	0.877	0.932	0.971	0.259	0.707	0.382	0.432	0.687
NCI-H838	0.966	1.07	0.889	0.896	1.05	0.968	0.948	0.984	1.07	0.234	0.24	0.254	0.236	1.01	1.07	0.861	0.93	1.15
NCI-H1355	–	0.986	0.986	0.739	1.04	1.07	0.997	1.02	1.08	1.05	1.01	1.02	1.09	–	0.935	0.608	–	0.809
NCI-H1395	–	0.971	0.854	0.774	0.788	0.971	0.909	0.97	1.03	0.864	0.851	0.831	1.01	–	0.914	0.894	0.944	0.878
NCI-H1437	0.939	0.971	1.02	0.971	1.02	0.995	0.973	1.06	1.15	0.345	0.261	0.318	0.324	1.03	1	1.04	1.02	1.06
NCI-H1563	0.971	1.01	0.815	0.988	1.04	0.991	1.06	0.976	1.07	0.751	0.785	0.601	0.639	0.944	0.971	0.853	0.777	1.06
NCI-H1651	0.977	0.939	0.953	1.02	0.948	1.02	0.985	0.998	1.06	0.523	0.57	0.559	0.566	0.994	1.01	0.859	0.935	0.904
